ON(Cc1ccccc1)Cc1ccccc1
solubility (mole fraction) (in 1,2,4-trichlorobenzene, 293.75 K): 0.00704
solubility (mole fraction) (in 1,2,4-trichlorobenzene, 299.15 K): 0.0103
solubility (mole fraction) (in 1,2,4-trichlorobenzene, 303.25 K): 0.0138
solubility (mole fraction) (in 1,2,4-trichlorobenzene, 308.45 K): 0.0198
solubility (mole fraction) (in 1,2,4-trichlorobenzene, 313.15 K): 0.0263
solubility (mole fraction) (in 1,2,4-trichlorobenzene, 318.15 K): 0.0367
solubility (mole fraction) (in 1,2,4-trichlorobenzene, 323.15 K): 0.0502
solubility (mole fraction) (in 1,2-dichlorobenzene, 273.15 K): 0.00343
solubility (mole fraction) (in 1,2-dichlorobenzene, 279.15 K): 0.00486
solubility (mole fraction) (in 1,2-dichlorobenzene, 283.65 K): 0.00624
solubility (mole fraction) (in 1,2-dichlorobenzene, 289.15 K): 0.0086
solubility (mole fraction) (in 1,2-dichlorobenzene, 293.25 K): 0.0106
solubility (mole fraction) (in 1,2-dichlorobenzene, 298.65 K): 0.0142
solubility (mole fraction) (in 1,2-dichlorobenzene, 303.25 K): 0.0182
solubility (mole fraction) (in 1,2-dichlorobenzene, 309.05 K): 0.024
solubility (mole fraction) (in 1,2-dichlorobenzene, 313.25 K): 0.0302
solubility (mole fraction) (in 1,2-dichlorobenzene, 318.95 K): 0.0395
solubility (mole fraction) (in 1,2-dichlorobenzene, 323.35 K): 0.0475
solubility (mole fraction) (in THF, 273.65 K): 0.051
solubility (mole fraction) (in THF, 279.15 K): 0.0594
solubility (mole fraction) (in THF, 284.15 K): 0.0678
solubility (mole fraction) (in THF, 289.15 K): 0.0773
solubility (mole fraction) (in THF, 293.75 K): 0.0865
solubility (mole fraction) (in THF, 299.15 K): 0.0986
solubility (mole fraction) (in THF, 303.25 K): 0.109
solubility (mole fraction) (in THF, 308.45 K): 0.123
solubility (mole fraction) (in THF, 313.15 K): 0.137
solubility (mole fraction) (in THF, 318.15 K): 0.152
solubility (mole fraction) (in THF, 323.15 K): 0.169
solubility (mole fraction) (in acetone, 273.15 K): 0.00762
solubility (mole fraction) (in acetone, 279.15 K): 0.0102
solubility (mole fraction) (in acetone, 283.45 K): 0.0124
solubility (mole fraction) (in acetone, 289.05 K): 0.0159
solubility (mole fraction) (in acetone, 293.05 K): 0.0186
solubility (mole fraction) (in acetone, 297.65 K): 0.0229
solubility (mole fraction) (in acetone, 302.85 K): 0.0282
solubility (mole fraction) (in acetone, 308.05 K): 0.035
solubility (mole fraction) (in acetone, 313.15 K): 0.0425
solubility (mole fraction) (in acetone, 317.15 K): 0.0489
solubility (mole fraction) (in acetone, 323.15 K): 0.0598
solubility (mole fraction) (in acetonitrile, 273.15 K): 0.00152
solubility (mole fraction) (in acetonitrile, 279.15 K): 0.00222
solubility (mole fraction) (in acetonitrile, 283.45 K): 0.00283
solubility (mole fraction) (in acetonitrile, 289.05 K): 0.00387
solubility (mole fraction) (in acetonitrile, 293.05 K): 0.0049
solubility (mole fraction) (in acetonitrile, 297.65 K): 0.00624
solubility (mole fraction) (in acetonitrile, 302.85 K): 0.00815
solubility (mole fraction) (in acetonitrile, 308.05 K): 0.0108
solubility (mole fraction) (in acetonitrile, 313.15 K): 0.014
solubility (mole fraction) (in acetonitrile, 317.15 K): 0.0168
solubility (mole fraction) (in acetonitrile, 323.15 K): 0.0217
solubility (mole fraction) (in cyclohexanone, 273.15 K): 0.0233
solubility (mole fraction) (in cyclohexanone, 279.15 K): 0.0292
solubility (mole fraction) (in cyclohexanone, 283.65 K): 0.0341
solubility (mole fraction) (in cyclohexanone, 289.15 K): 0.041
solubility (mole fraction) (in cyclohexanone, 293.25 K): 0.0471
solubility (mole fraction) (in cyclohexanone, 298.65 K): 0.056
solubility (mole fraction) (in cyclohexanone, 303.25 K): 0.0654
solubility (mole fraction) (in cyclohexanone, 309.05 K): 0.0778
solubility (mole fraction) (in cyclohexanone, 313.25 K): 0.09
solubility (mole fraction) (in cyclohexanone, 318.95 K): 0.105
solubility (mole fraction) (in cyclohexanone, 323.35 K): 0.119
solubility (mole fraction) (in dichloromethane, 273.15 K): 0.0132
solubility (mole fraction) (in dichloromethane, 279.15 K): 0.0179
solubility (mole fraction) (in dichloromethane, 283.45 K): 0.0226
solubility (mole fraction) (in dichloromethane, 289.05 K): 0.0287
solubility (mole fraction) (in dichloromethane, 293.05 K): 0.0345
solubility (mole fraction) (in dichloromethane, 297.65 K): 0.0425
solubility (mole fraction) (in dichloromethane, 302.85 K): 0.0534
solubility (mole fraction) (in dichloromethane, 308.05 K): 0.0657
solubility (mole fraction) (in dichloromethane, 312.15 K): 0.0798
solubility (mole fraction) (in ethanol, 273.15 K): 0.00127
solubility (mole fraction) (in ethanol, 279.15 K): 0.00172
solubility (mole fraction) (in ethanol, 283.45 K): 0.00215
solubility (mole fraction) (in ethanol, 289.05 K): 0.00281
solubility (mole fraction) (in ethanol, 293.05 K): 0.00342
solubility (mole fraction) (in ethanol, 297.65 K): 0.00426
solubility (mole fraction) (in ethanol, 302.85 K): 0.00543
solubility (mole fraction) (in ethanol, 308.05 K): 0.00695
solubility (mole fraction) (in ethanol, 313.15 K): 0.00863
solubility (mole fraction) (in ethanol, 317.15 K): 0.0103
solubility (mole fraction) (in ethanol, 323.15 K): 0.013
solubility (mole fraction) (in ethyl acetate, 273.15 K): 0.00842
solubility (mole fraction) (in ethyl acetate, 279.15 K): 0.0114
solubility (mole fraction) (in ethyl acetate, 283.45 K): 0.0139
solubility (mole fraction) (in ethyl acetate, 289.05 K): 0.0178
solubility (mole fraction) (in ethyl acetate, 293.05 K): 0.0209
solubility (mole fraction) (in ethyl acetate, 297.65 K): 0.0256
solubility (mole fraction) (in ethyl acetate, 302.85 K): 0.0317
solubility (mole fraction) (in ethyl acetate, 308.05 K): 0.0395
solubility (mole fraction) (in ethyl acetate, 313.15 K): 0.0483
solubility (mole fraction) (in ethyl acetate, 317.15 K): 0.0551
solubility (mole fraction) (in ethyl acetate, 323.15 K): 0.0679
solubility (mole fraction) (in isobutanol, 273.15 K): 0.000771
solubility (mole fraction) (in isobutanol, 279.15 K): 0.00114
solubility (mole fraction) (in isobutanol, 283.65 K): 0.00149
solubility (mole fraction) (in isobutanol, 289.15 K): 0.00208
solubility (mole fraction) (in isobutanol, 293.25 K): 0.00258
solubility (mole fraction) (in isobutanol, 298.65 K): 0.00355
solubility (mole fraction) (in isobutanol, 303.25 K): 0.00446
solubility (mole fraction) (in isobutanol, 309.05 K): 0.00613
solubility (mole fraction) (in isobutanol, 313.25 K): 0.00753
solubility (mole fraction) (in isobutanol, 318.95 K): 0.0097
solubility (mole fraction) (in isobutanol, 323.35 K): 0.0119
solubility (mole fraction) (in isopropanol, 273.15 K): 0.000527
solubility (mole fraction) (in isopropanol, 279.15 K): 0.000822
solubility (mole fraction) (in isopropanol, 283.65 K): 0.00111
solubility (mole fraction) (in isopropanol, 289.15 K): 0.00164
solubility (mole fraction) (in isopropanol, 293.25 K): 0.00206
solubility (mole fraction) (in isopropanol, 298.65 K): 0.00298
solubility (mole fraction) (in isopropanol, 303.25 K): 0.00389
solubility (mole fraction) (in isopropanol, 309.05 K): 0.00542
solubility (mole fraction) (in isopropanol, 313.25 K): 0.00677
solubility (mole fraction) (in isopropanol, 318.95 K): 0.00891
solubility (mole fraction) (in isopropanol, 323.35 K): 0.0114
solubility (mole fraction) (in methanol, 273.15 K): 0.00126
solubility (mole fraction) (in methanol, 279.15 K): 0.00171
solubility (mole fraction) (in methanol, 283.45 K): 0.00209
solubility (mole fraction) (in methanol, 289.05 K): 0.00276
solubility (mole fraction) (in methanol, 293.05 K): 0.00333
solubility (mole fraction) (in methanol, 297.65 K): 0.00409
solubility (mole fraction) (in methanol, 302.85 K): 0.00513
solubility (mole fraction) (in methanol, 308.05 K): 0.00648
solubility (mole fraction) (in methanol, 313.15 K): 0.00795
solubility (mole fraction) (in methanol, 317.15 K): 0.00934
solubility (mole fraction) (in methanol, 323.15 K): 0.0117
solubility (mole fraction) (in n-butanol, 273.15 K): 0.00141
solubility (mole fraction) (in n-butanol, 279.15 K): 0.00198
solubility (mole fraction) (in n-butanol, 283.45 K): 0.00248
solubility (mole fraction) (in n-butanol, 289.05 K): 0.00338
solubility (mole fraction) (in n-butanol, 293.05 K): 0.00411
solubility (mole fraction) (in n-butanol, 297.65 K): 0.00509
solubility (mole fraction) (in n-butanol, 302.85 K): 0.00663
solubility (mole fraction) (in n-butanol, 308.05 K): 0.00843
solubility (mole fraction) (in n-butanol, 313.15 K): 0.0108
solubility (mole fraction) (in n-butanol, 317.15 K): 0.0127
solubility (mole fraction) (in n-butanol, 323.15 K): 0.0159
solubility (mole fraction) (in n-octanol, 273.15 K): 0.00126
solubility (mole fraction) (in n-octanol, 279.15 K): 0.00187
solubility (mole fraction) (in n-octanol, 283.65 K): 0.00248
solubility (mole fraction) (in n-octanol, 289.15 K): 0.00352
solubility (mole fraction) (in n-octanol, 293.25 K): 0.00449
solubility (mole fraction) (in n-octanol, 298.65 K): 0.00627
solubility (mole fraction) (in n-octanol, 303.25 K): 0.00789
solubility (mole fraction) (in n-octanol, 309.05 K): 0.011
solubility (mole fraction) (in n-octanol, 313.25 K): 0.0136
solubility (mole fraction) (in n-octanol, 318.95 K): 0.0178
solubility (mole fraction) (in n-octanol, 323.35 K): 0.022
solubility (mole fraction) (in n-pentanol, 273.65 K): 0.00163
solubility (mole fraction) (in n-pentanol, 279.15 K): 0.00226
solubility (mole fraction) (in n-pentanol, 284.15 K): 0.00291
solubility (mole fraction) (in n-pentanol, 289.15 K): 0.00386
solubility (mole fraction) (in n-pentanol, 293.75 K): 0.00479
solubility (mole fraction) (in n-pentanol, 299.15 K): 0.00631
solubility (mole fraction) (in n-pentanol, 303.25 K): 0.00766
solubility (mole fraction) (in n-pentanol, 308.45 K): 0.00965
solubility (mole fraction) (in n-pentanol, 313.15 K): 0.0121
solubility (mole fraction) (in n-pentanol, 318.15 K): 0.0151
solubility (mole fraction) (in n-pentanol, 323.15 K): 0.0185
solubility (mole fraction) (in n-propanol, 273.15 K): 0.00136
solubility (mole fraction) (in n-propanol, 279.15 K): 0.00187
solubility (mole fraction) (in n-propanol, 283.45 K): 0.00232
solubility (mole fraction) (in n-propanol, 289.05 K): 0.00313
solubility (mole fraction) (in n-propanol, 293.05 K): 0.00383
solubility (mole fraction) (in n-propanol, 297.65 K): 0.00476
solubility (mole fraction) (in n-propanol, 302.85 K): 0.00606
solubility (mole fraction) (in n-propanol, 308.05 K): 0.00781
solubility (mole fraction) (in n-propanol, 313.15 K): 0.00991
solubility (mole fraction) (in n-propanol, 317.15 K): 0.012
solubility (mole fraction) (in n-propanol, 323.15 K): 0.015
solubility (mole fraction) (in toluene, 273.15 K): 0.0043
solubility (mole fraction) (in toluene, 279.15 K): 0.00586
solubility (mole fraction) (in toluene, 283.65 K): 0.00732
solubility (mole fraction) (in toluene, 289.15 K): 0.00959
solubility (mole fraction) (in toluene, 293.25 K): 0.0114
solubility (mole fraction) (in toluene, 298.65 K): 0.0149
solubility (mole fraction) (in toluene, 303.25 K): 0.0182
solubility (mole fraction) (in toluene, 309.05 K): 0.0231
solubility (mole fraction) (in toluene, 313.25 K): 0.0273
solubility (mole fraction) (in toluene, 318.95 K): 0.0337
solubility (mole fraction) (in toluene, 323.35 K): 0.0398

Source: BigSolDB 2.1
